Laboratory results from publication PMC5571211 (Scientific Reports, 2017).

Columns and labels:
[1] = target: T1, LTC4S (Homo sapiens, UniProt Q16873); conditions: cited from earlier work
T1 construct: expressed in transfected cells; host or cells: HEK293 stably expressing LTC4S (geneticin selection), microsomal fraction
T1 sequence (Q16873 1-150): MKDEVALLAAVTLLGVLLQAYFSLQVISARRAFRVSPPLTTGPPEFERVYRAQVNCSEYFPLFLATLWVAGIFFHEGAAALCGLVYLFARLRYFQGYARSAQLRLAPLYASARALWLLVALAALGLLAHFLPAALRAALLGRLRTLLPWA

[2] = target: T2, mPGES-1 (Homo sapiens, UniProt O14684); conditions: cited from earlier work
T2 construct: A549 cells were cultivated in DMEM medium containing FCS (2%) and IL-1β (2 ng/mL) for 72 h; endogenous in cells; host or cells: A549 cells, IL-1β-induced, microsomal fraction
T2 sequence (O14684 1-152): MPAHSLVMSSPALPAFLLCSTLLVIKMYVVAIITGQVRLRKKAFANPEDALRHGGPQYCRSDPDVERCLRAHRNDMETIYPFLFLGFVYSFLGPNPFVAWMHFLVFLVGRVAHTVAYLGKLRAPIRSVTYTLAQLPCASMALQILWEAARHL

[3] = test system: monocytes; assay: Acute cytotoxicity, MTT assay in monocytes; type: cell-based, human; conditions: 24 or 48 hrs; diflapolin 10 µM, staurosporine 3 µM
Description: Acute cytotoxicity of the compounds was determined using freshly isolated monocytes. Cells (0.2 × 10^6) per sample were seeded in 100 µL buffer on 96-well plates and treated with the test compounds and appropriate controls for 24 or 48 hrs (37 °C, 5% CO2). After addition of MTT (5 mg/mL) for 2 h (37 °C, 5% CO2), cells were lysed by SDS treatment (10%, pH 4.5) for 16–20 hrs and formazan formation was determined by measurement of absorbance at 570 nm.

[4] = target: T2, mPGES-1; assay: mPGES-1 activity in microsomes of IL-1β-stimulated A549 cells; type: biochemical; conditions: cell-free, up to 10 µM
Description: To perform the analysis of microsomal PGE2 synthase (mPGES)-1 activity, microsomal preparations of A549 cells were obtained as described before. Briefly, A549 cells were cultivated in DMEM medium containing FCS (2%) and IL-1β (2 ng/mL) for 72 h (37 °C, 5% CO2). Cells were harvested and resuspended in homogenization buffer consisting of potassium phosphate (0.1 M, pH 7.4), phenylmethanesulfonyl fluoride (1 mM), soybean trypsin inhibitor (60 µg/mL), leupeptin (1 µg/mL), glutathione (2.5 mM), and sucrose (250 mM). After freezing the cells in liquid nitrogen and sonication (3 × 20 s), a differential centrifugation at 10,000 g (10 min, 4 °C) and 174,000 × g (60 min, 4 °C) was performed and pellets were resuspended in homogenization buffer. […] After stimulation (1 min, 4 °C) with 20 µM PGH2 the reaction was terminated by addition of stop solution containing FeCl3 (40 mM), citric acid (80 mM), and 11β-PGE2 (10 µM as internal standard) and analyzed for PGE2 product formation by RP-HPLC as reported before.

[5] = target: T3, human recombinant LTA4-H (Homo sapiens, UniProt P09960); assay: LTA4 hydrolase activity, co-incubation of isolated 5-LOX and LTA4-H; type: biochemical; conditions: diflapolin up to 10 µM, AUDA 10 µM, SC57461A 0.3 µM, zileuton 3 µM
T3 construct: gift of Dr. E. Proschak, Goethe University, Frankfurt
T3 sequence (P09960 2-611 limits assumed): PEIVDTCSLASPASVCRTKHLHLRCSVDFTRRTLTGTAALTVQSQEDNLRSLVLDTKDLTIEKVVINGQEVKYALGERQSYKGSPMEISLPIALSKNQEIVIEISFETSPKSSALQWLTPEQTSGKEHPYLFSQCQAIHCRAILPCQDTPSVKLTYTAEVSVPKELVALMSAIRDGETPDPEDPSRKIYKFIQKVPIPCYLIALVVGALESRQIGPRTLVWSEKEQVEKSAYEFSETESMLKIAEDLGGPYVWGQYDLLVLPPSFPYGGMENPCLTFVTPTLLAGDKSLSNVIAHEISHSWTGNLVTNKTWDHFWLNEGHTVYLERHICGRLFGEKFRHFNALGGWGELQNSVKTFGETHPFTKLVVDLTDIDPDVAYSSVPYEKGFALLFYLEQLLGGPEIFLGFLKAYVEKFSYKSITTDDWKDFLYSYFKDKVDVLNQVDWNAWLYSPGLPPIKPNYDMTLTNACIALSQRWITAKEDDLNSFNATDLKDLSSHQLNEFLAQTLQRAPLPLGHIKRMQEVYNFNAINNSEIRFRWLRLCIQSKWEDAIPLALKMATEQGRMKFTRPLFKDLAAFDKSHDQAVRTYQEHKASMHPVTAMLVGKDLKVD
Description: In order to determine the activity of LTA4-H, aliquots of human recombinant 5-LOX (0.5 µg) and 10 µg of human recombinant LTA4-H (kindly provided by Dr. E. Proschak, Goethe University, Frankfurt, Germany) were suspended in 1 mL PBS containing 1 mM EDTA and pre-incubated with test compounds or vehicle (0.1% DMSO) for 10 min on ice. The specific LTA4-H inhibitor SC57461A (0.3 µM) was used as reference drug. Subsequently, incubations were stimulated with 20 µM AA and 2 mM CaCl2 for additional 10 min at 37 °C. The reaction was stopped by 1 volume ice-cold methanol, 530 µL acidified PBS and 200 ng of PGB1 as internal standard were added and subjected to solid phase extraction. All LTB4 isomers were analyzed by HPLC as described above.

[6] = test system: HEK293 cells expressing 5-LOX (deficient in FLAP); assay: 5-LOX product formation in HEK293 cells expressing 5-LOX alone; type: cell-based; conditions: HEK293 expressing 5-LOX, A23187 plus 3 µM AA
Description: HEK293 cells were cultured in monolayers (37 °C, 5% CO2) in DMEM containing FCS (10%), penicillin (100 U/mL) and streptomycin (100 µg/mL). HEK293 cell lines stably expressing 5-LOX with or without FLAP were selected using geneticin (400 µg/mL) with or without hygromycin (200 µg/mL), respectively, as previously described. Transfection of HEK293 was performed using pcDNA3.1 plasmids and lipofectamine according to the manufacturer’s instructions (Invitrogen, Darmstadt, Germany).
For analysis of 5-LOX product formation in HEK293 cells stably expressing 5-LOX with or without FLAP, cells were harvested by trypsinization, pelleted (1,200 rpm, 5 min, 4 °C) and resuspended in PGC buffer to a final concentration of 1 × 10^6 cells/mL. Aliquots were pre-incubated with test compounds or 0.1% DMSO for 15 min, respectively, and stimulated with 2.5 µM A23187 and 3 µM AA.

SMILES	inhibition of MAPEG family member LTC4S [1]	inhibition of MAPEG family member mPGES-1 [2]	viability of monocytes, MTT assay [3]	inhibition of mPGES-1 activity [4]	effect on LTA4-H activity (LTB4 formation) [5]	inhibition of 5-LOX product formation [6]
CC(C)c1ccc2c(c1)c(SC(C)(C)C)c(CC(C)(C)C(=O)O)n2Cc1ccc(Cl)cc1 [MK886, 3-[1-(4-chlorobenzyl)-3-t-butyl-thio-5-isopropylindol-2-yl]-2,2 - dimethylpropanoic acid]	inhibit	inhibit				
Cc1cc(OCc2nc3ccccc3s2)ccc1NC(=O)Nc1ccc(Cl)c(Cl)c1 [diflapolin, N-[4-(benzothiazol-2-ylmethoxy)-2-methylphenyl]-N′-(3,4-dichlorophenyl)urea]			did not affect the viability	failed to inhibit	failed to inhibit	hardly impaired
